Experimental data published in PMC12589562, “Structural and functional characterization of TgGSK3, a druggable kinase in Toxoplasma gondii” (Nature Communications, 2025).

Experiments:
TgGSK3 = biological target: T1, TgGSK3 (Toxoplasma gondii, UniProt A0A125YY75); test: X-ray co-crystal structure ([…] Å and […] Å); microscale thermophoresis; Kinase-Glo inhibition (IC50 […]); format: binding
T1 construct: gene TGGT1_265330; kinase domain, aa 46-385 (orthorhombic crystal) and aa 20/21-385 (monoclinic crystal)

[1] = biological target: recombinant TgGSK3 (amino acids 21-385), C-terminal 6His (Toxoplasma gondii); test: crystal structure; monoclinic crystal at 3.0 A of TgGSK3 (aa 20 to 385) with LY2090314; hanging drops in 5% MPD, 9% PEG 6000, 0.1 M Tris pH 7.5; crystals grew after several weeks; four subunits in the asymmetric unit

With O=C1NC(=O)C(c2cnc3ccccn23)=C1c1cn2c3c(cc(F)cc13)CN(C(=O)N1CCCCC1)CC2 [compound 209, LY2090314] the Kd (TgGSK3) was 34 nM.
With “recombinant TgGSK3 (amino acids 21-385), C-terminal 6His (from UniProt A0A125YY75 21-385) (enzyme)” the stoichiometry N [1] was 2.
